From patent US12714107B2, “Dioxazolines and their use as herbicides” (BASF SE, priority 2020, dated 2026)

Tests used:
AVEFA = experiment: greenhouse herbicidal activity, post-emergence method; format: in vivo, Avena fatua; conditions: scale 0 to 100
From the text: (§1) The culture containers used were plastic flowerpots containing loamy sand with approximately 3.0% of humus as the substrate. The seeds of the test plants were sown separately for each species.
(§2) For the pre-emergence treatment, the active ingredients, which had been suspended or emulsified in water, were applied directly after sowing by means of finely distributing nozzles. The containers were irrigated gently to promote germination and growth and subsequently covered with transparent plastic hoods until the test plants had rooted. This cover caused uniform germination of the test plants, unless this had been impaired by the active ingredients. For the post-emergence treatment, the test plants were first grown to a height of 3 to 15 cm, depending on the plant habit, and only then treated with the active ingredients which had been suspended or emulsified in water. For this purpose, the test plants were either sown directly and grown in the same containers, or they were first grown separately as seedlings and transplanted into the test containers a few days prior to treatment.
(§3) Depending on the species, the test plants were kept at 10-25° C. or 20-35° C., respectively. The test period extended over 2 to 4 weeks. During this time, the test plants were tended, and their response to the individual treatments was evaluated.
(§4) Evaluation was carried out using a scale from 0 to 100. […]

APESV = experiment: greenhouse herbicidal activity, pre-emergence method; format: in vivo, Apera spica-venti; conditions: application rate 0,500 kg/ha, scale 0 to 100
From the text: as §1, §2, §3, §4

ECHCG [1] = experiment: as above; format: in vivo, Echinocloa crus-galli; conditions: scale 0 to 100
From the text: as §1, §2, §3, §4

SETFA = experiment: as above; format: in vivo, Setaria faberi; conditions: application rate 1,000 kg/ha, scale 0 to 100
From the text: as §1, §2, §3, §4

AMARE [2] = experiment: as above; format: in vivo, Amaranthus retroflexus; conditions: scale 0 to 100
From the text: as §1, §2, §3
Evaluation was carried out using a scale from 0 to 100. 100 means no emergence of the test plants, or complete destruction of at least the aerial moieties, and 0 means no damage, or normal course of growth. A good herbicidal activity is given at values of 80 to 90 and a very good herbicidal activity is given at values of 90 to 100.
The test plants used in the greenhouse experiments were of the following species: […]

AMARE [3] = experiment: greenhouse herbicidal activity, post-emergence method; format: in vivo, Amaranthus retroflexus; conditions: application rate 1,000 kg/ha, scale 0 to 100
From the text: as §1, §2, §3, §4

SETVI = experiment: as above; format: in vivo, Setaria viridis; conditions: application rate 0,500 kg/ha, scale 0 to 100
From the text: as §1, §2, §3, §4

ECHCG [4] = experiment: as above; format: in vivo, Echinocloa crus-galli; conditions: scale 0 to 100
From the text: as §1, §2, §3, §4

ALOMY = experiment: as above; format: in vivo, Alopercurus myosuroides; conditions: application rate 0,500 kg/ha, scale 0 to 100
From the text: as §1, §2, §3, §4

COC(=O)C1C=CC(NC(=O)C2(C(F)(F)F)ON=C(c3cc(Cl)cc(Cl)c3)O2)C1 (centres unmarked) [compound 19]
herbicidal activity against AVEFA (AVEFA; application rate 0,250 kg/ha): very good (a very good herbicidal activity is given at values of 90 to 100)

COC(=O)CCCNC(=O)C1(C)ON=C(c2cc(Cl)cc(Cl)c2)O1 (centres unmarked) [compound 12]
herbicidal activity against AVEFA (AVEFA; application rate 0,500 kg/ha): good (A good herbicidal activity is given at values of 80 to 90)
herbicidal activity against APESV (APESV): good (A good herbicidal activity is given at values of 80 to 90)

CC(CC(=O)O)NC(=O)C1(C)ON=C(c2cc(Cl)cc(Cl)c2)O1 (centres unmarked) [compound 17]
herbicidal activity against ECHCG (ECHCG [1]; application rate 1,000 kg/ha): good (A good herbicidal activity is given at values of 80 to 90)
herbicidal activity against SETFA (SETFA): very good (a very good herbicidal activity is given at values of 90 to 100)

C=CC1(C(=O)NC(C)CC(=O)OC)ON=C(c2cc(Cl)cc(Cl)c2)O1 (centres unmarked) [compound 110]
herbicidal activity against AMARE (AMARE [2]; application rate 1,000 kg/ha): good (A good herbicidal activity is given at values of 80 to 90)
herbicidal activity against AMARE (AMARE [3]): good (A good herbicidal activity is given at values of 80 to 90)

COC(=O)C1C=CC(NC(=O)C2(C)ON=C(c3cc(F)cc(F)c3)O2)C1 (centres unmarked) [compound 18]
herbicidal activity against AMARE (AMARE [2]; application rate 1,000 kg/ha): very good (a very good herbicidal activity is given at values of 90 to 100)

COC(=O)C1CC(NC(=O)C2(C)ON=C(c3cc(F)cc(F)c3)O2)C1 (centres unmarked) [compound 16]
herbicidal activity against SETVI (SETVI): very good (a very good herbicidal activity is given at values of 90 to 100)

COC(=O)CC(C)NC(=O)C1(C)ON=C(c2cc(Cl)cc(Cl)c2)O1 (centres unmarked) [compound 11]
herbicidal activity against ECHCG (ECHCG [4]; application rate 0,500 kg/ha): very good (a very good herbicidal activity is given at values of 90 to 100)

C=CC1(C(=O)NC2C=CC(C(=O)OC)C2)ON=C(c2cc(Cl)cc(Cl)c2)O1 (centres unmarked) [compound 111]
herbicidal activity against ECHCG (ECHCG [1]; application rate 0,250 kg/ha): very good (a very good herbicidal activity is given at values of 90 to 100)
herbicidal activity against ECHCG (ECHCG [4]; application rate 0,250 kg/ha): very good (a very good herbicidal activity is given at values of 90 to 100)

COC(=O)C[C@H](C)NC(=O)C1(C(F)(F)F)ON=C(c2cc(Cl)cc(Cl)c2)O1 (stereo partly drawn) [compound 13, methyl (3S)-3-[[3-(3,5-dichlorophenyl)-5-(trifluoromethyl)-1,4,2-dioxazole-5-carbonyl]amino]butanoate]
herbicidal activity against AMARE (AMARE [2]; application rate 0,500 kg/ha): very good (a very good herbicidal activity is given at values of 90 to 100)
herbicidal activity against ALOMY (ALOMY): good (A good herbicidal activity is given at values of 80 to 90)
